Patent US12317914B2, “Compositions and methods using one or more autophagy-inducing amino acids to potentiate musculoskeletal effect of one or more anabolic amino acids” (SOCIETE DES PRODUITS NESTLE S.A., priority 2019, dated 2025)

These molecules were tested on LC3 protein fused to ZsGreen (assay: zebrafish autophagy reporter (LC3-ZsGreen, skeletal muscle specific promoter), number of LC3 punctae). Details: zebrafish larvae treated at 48 h post-fertilization, 0.25 to 10 mM, 16 hours of treatment.
Type: in vivo
Method: After 16 hours of treatment larvae were anesthetized with 0.016% tricaine and imaged with ImageXpress confocal system at 20× magnification (Molecular Devices). Z stack images were captured for each larva and maximal projection images were produced. Number of LC3 punctae have been calculated with MetaXpress software (Moleculare Devices) and normalized by fish area.

SMILES	effect on autophagy (number of LC3 punctae normalized by fish area)
O=C(O)[C@@H]1CCCN1 [Proline]	strongly induce autophagy
CC(C)[C@H](N)C(=O)O [Valine]	strongly induce autophagy
CC[C@H](C)[C@H](N)C(=O)O [Isoleucine]	reduce basal autophagy
N[C@@H](CS)C(=O)O [Cysteine]	strongly induce autophagy
N=C(N)NCCC[C@H](N)C(=O)O [Arginine]	reduce basal autophagy
CSCC[C@H](N)C(=O)O [Methionine]	strongly induce autophagy
CC(C)C[C@H](N)C(=O)O [Leucine]	reduce basal autophagy
NCC(=O)O [Glycine]	strongly induce autophagy
N[C@@H](CCC(=O)O)C(=O)O [Glutamate]	strongly induce autophagy
N[C@@H](CO)C(=O)O [Serine]	strongly induce autophagy
N[C@@H](Cc1ccc(O)cc1)C(=O)O [Tyrosine]	strongly induce autophagy
NC(=O)CC[C@H](N)C(=O)O [Glutamine]	reduce basal autophagy
CC(=O)N[C@@H](CS)C(=O)O [N-Acetyl Cysteine]	strongly induce autophagy
